Earlier results in patent US20210113548A1, “METHODS FOR DETERMINING A DRUG DOSING REGIMEN” (Clear Creek Bio, Inc., priority 2019, published 2021).

How the values were obtained:
[1] = system: mouse model of AML
[2] = system: solid tumor malignancies; conditions: administered over a 5-day period followed by a 3-week gap or once per week for three weeks followed by a 1-week gap

For `Cc1c(-c2ccc(-c3ccccc3F)cc2)nc2ccc(F)cc2c1C(=O)O` [brequinar, 6-fluoro-2-(2′-fluoro-1,1′ biphenyl-4-yl)-3-methyl-4-quinoline carboxylic acid], the “adverse effects of daily administration of high doses” value [1] is given as “weight loss, anemia, and thrombocytopenia” and the “efficacy in treatment of solid tumor malignancies” value [2] is given as “ineffective”.
